# Measured values from patent US4992455A, “Thiazolidin-4-one derivatives useful for treating diseases caused by platelet activating factor” (Sumitomo Pharmaceuticals Company, Limited, priority 1987, dated 1991).
# Where a name gives a salt, the structure may show the parent alone.
# Test system: fatal effect of PAF on mice
# Assay: Test for inhibition of fatal effect of PAF on mice
# Type: in vivo, Male ICR mice
# Conditions: 10 mg/kg iv, PAF 10 μg/kg iv, 2 hours after PAF
# Method: Male ICR mice (perchased from Charles River Co.) aged 4 weeks were anesthetized by injecting subcutaneously 100 mg/kg of Isomital® soda (sodium amobarbital supplied by Nippon Shinyaku Co., Ltd.). After 18 minutes, the mice were injected with a test compound or a solvent through tail veins. The test compound was dissolved in a 0.2 M phosphate buffer solution to a concentration of 1 mg/ml and 10 ml/kg of this solution was injected (dose of test compound 10 mg/kg). Two minutes after this administration, the mice were injected with 10 μg/kg of PAF through tail veins. The PAF was dissolved in physiological saline containing 0.25% of bovine serum albumin to a concentration of 2 μg/ml, and the mice were injected with 5 ml/kg of this solution.
# After PAF administration, the mice were observed and the survival rate of mice 2 hours later was determined.
structure (smiles),measurement,value
CCCCCC[C@H]1S[C@H](c2cccnc2)N(CCN(C)C)C1=O (relative stereo) [compound 174],Survival rate,80%
"C[C@H]1S[C@@H](c2cccnc2)N(C)C1=O (relative stereo) [compound 182, 3,5-dimethyl-2-(3-pyridyl)thiazolidin-4-one hydrochloride]",Survival rate,100%
CCCCCCC[C@H]1S[C@H](c2cccnc2)N(CCN(C)C)C1=O (relative stereo) [compound 175],Survival rate,60%
